Assay results: US20030176465A1, “Cyclic amino acid derivatives” (priority 2000, published 2003)
Where a name gives a salt, the structure may show the parent alone.

Key:
factor Xa, human = factor Xa, human (Homo sapiens, UniProt P00742); test: Inhibition of factor Xa (IC50, headed 'Affinity to Receptors'); assay type: biochemical
Text: The inhibition of factor Xa by the compounds according to the invention and the measurement of the anticoagulant and antithrombotic activity can be determined by conventional in-vitro or in-vivo methods. A suitable method is described, for example, by J. Hauptmann et al. in Thrombosis and Haemostasis 1990, 63, 220-223.
The inhibition of factor Xa can be measured, for example, by the method of T. Hara et al. in Thromb. Haemostas. 1994, 71, 314-319.

TF/VIIa = TF/VIIa (Homo sapiens, UniProt P08709); test: Inhibition of TF/VIIa (IC50, headed 'Affinity to Receptors'); assay type: biochemical
Text: The inhibition of factor VIIa by the compounds according to the invention and the measurement of the anticoagulant and antithrombotic activity can be determined by conventional in-vitro or in-vivo methods. A conventional method for the measurement of the inhibition of factor VIIa is described, for example, by H. F. Ronning et al. in Thrombosis Research 1996, 84, 73-81.

Chain of TF/VIIa (P08709 213-466 limits assumed): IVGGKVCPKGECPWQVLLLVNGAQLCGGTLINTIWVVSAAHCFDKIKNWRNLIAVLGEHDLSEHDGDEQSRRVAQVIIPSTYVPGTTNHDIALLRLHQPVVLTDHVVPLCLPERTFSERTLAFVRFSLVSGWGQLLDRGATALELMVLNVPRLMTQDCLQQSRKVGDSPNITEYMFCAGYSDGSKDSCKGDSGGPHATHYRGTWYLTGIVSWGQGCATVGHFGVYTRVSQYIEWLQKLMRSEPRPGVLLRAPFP
Chain of TF/VIIa (P08709 61-212 limits assumed): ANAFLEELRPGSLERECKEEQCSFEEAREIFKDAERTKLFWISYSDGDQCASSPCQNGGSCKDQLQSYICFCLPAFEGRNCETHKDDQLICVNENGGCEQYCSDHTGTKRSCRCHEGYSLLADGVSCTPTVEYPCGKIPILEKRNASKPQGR
Chain of TF/VIIa (P13726 33-295 partner): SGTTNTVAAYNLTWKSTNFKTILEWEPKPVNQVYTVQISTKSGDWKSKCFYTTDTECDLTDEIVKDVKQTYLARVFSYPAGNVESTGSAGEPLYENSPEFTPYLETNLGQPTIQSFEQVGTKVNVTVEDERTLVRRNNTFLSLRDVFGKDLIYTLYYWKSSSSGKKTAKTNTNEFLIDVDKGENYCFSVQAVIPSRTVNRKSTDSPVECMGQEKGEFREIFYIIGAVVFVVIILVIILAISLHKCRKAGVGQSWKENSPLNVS
Chain of factor Xa, human (P00742 235-488 limits assumed): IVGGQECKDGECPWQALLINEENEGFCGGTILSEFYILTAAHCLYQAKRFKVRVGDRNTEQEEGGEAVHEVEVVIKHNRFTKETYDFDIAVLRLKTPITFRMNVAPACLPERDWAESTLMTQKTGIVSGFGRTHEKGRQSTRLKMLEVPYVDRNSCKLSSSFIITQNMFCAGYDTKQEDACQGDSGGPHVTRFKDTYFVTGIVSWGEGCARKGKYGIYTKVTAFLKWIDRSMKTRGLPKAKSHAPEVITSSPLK
Chain of factor Xa, human (P00742 41-179 limits assumed): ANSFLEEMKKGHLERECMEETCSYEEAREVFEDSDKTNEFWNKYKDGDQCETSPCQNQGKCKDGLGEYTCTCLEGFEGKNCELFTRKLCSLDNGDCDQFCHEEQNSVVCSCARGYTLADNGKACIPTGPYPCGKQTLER

SMILES	melting point	IC50 (factor Xa, human) [nM]	IC50 (TF/VIIa) [nM]
Nc1nc(F)c(F)c(N2CCC[C@H]2C(=O)Nc2ccc(-c3ccccc3S(N)(=O)=O)cc2)c1F (as salt: trifluoroacetate) [AF, N-(2′-sulfamoylbiphenyl-4-yl)-(2S)-1-(2-amino-3,5,6-trifluoropyridin-4-yl)pyrrolidine-2-carboxamide, trifluoroacetate]	180 °C (dec.)	–	–
NC(=NO)c1cccc(N2CCCCC2C(=O)Nc2ccc(-c3ccccc3S(N)(=O)=O)cc2)c1 [DA, N-(2′-sulfamoylbiphenyl-4-yl)-(2R,S)-1-[3-(N-hydroxyamidino)phenyl]piperidine-2-carboxamide]	98 °C (dec.)	340	440
